Measurements: patent publication US10005817B2, “Peptide pharmaceuticals” (EUMEDERIS PHARMACEUTICALS, INC., priority 2012, dated 2018)
Positions of bridges follow the written chain, without caps; N, C: chain ends. Non-standard residues stand in square brackets, D forms with d. Residues, ends and D or L forms follow the SMILES beside them. *: point of attachment. GlcA(β-D,1-O-dodecyl) = CCCCCCCCCCCCO[C@@H]1O[C@H](C(=O)*)[C@@H](O)[C@H](O)[C@H]1O; βGlcA(1-OMe) = CO[C@@H]1O[C@H](C(=O)*)[C@@H](O)[C@H](O)[C@H]1O; Phe(2,4,6-Me3) = Cc1cc(C)c(C[C@H](N)C(=O)O)c(C)c1; Dmt = Cc1cc(O)cc(C)c1C[C@H](N)C(=O)O; hArg = N=C(N)NCCCC[C@H](N)C(=O)O; Nle = CCCC[C@H](N)C(=O)O; Ac5c = NC1(C(=O)O)CCCC1; Aib = CC(C)(N)C(=O)O

Assays:
[1] = biological target: T1, PTH receptor (PTHR1) (Homo sapiens, UniProt Q03431); test: PTH1 cellular assay, cAMP, agonist mode (SaOS2 cells, Cerep); assay type: cell-based; settings: for Emax: SAOS-2, read-out: Maximal response (% PTHrP)
T1 construct: Cerep SA
T1 sequence (Q03431 27-593): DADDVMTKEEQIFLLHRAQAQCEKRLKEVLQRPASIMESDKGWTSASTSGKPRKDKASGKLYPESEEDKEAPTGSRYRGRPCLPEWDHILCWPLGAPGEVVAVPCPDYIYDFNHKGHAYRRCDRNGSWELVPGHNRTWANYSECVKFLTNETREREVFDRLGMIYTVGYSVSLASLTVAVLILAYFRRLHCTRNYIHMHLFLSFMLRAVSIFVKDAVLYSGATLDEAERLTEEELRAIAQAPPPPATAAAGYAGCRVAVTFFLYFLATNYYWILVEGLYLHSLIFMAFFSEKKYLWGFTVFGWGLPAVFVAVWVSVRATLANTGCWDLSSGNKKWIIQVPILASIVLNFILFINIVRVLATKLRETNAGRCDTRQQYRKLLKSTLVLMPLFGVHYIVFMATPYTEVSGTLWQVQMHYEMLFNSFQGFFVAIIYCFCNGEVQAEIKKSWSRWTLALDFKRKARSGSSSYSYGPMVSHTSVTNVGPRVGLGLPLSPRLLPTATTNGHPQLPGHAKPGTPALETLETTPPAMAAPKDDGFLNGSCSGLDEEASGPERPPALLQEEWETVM
Protocol: Compounds were weighed precisely in an amount of approximately 1 mg and assayed in standard cellular assays (cerep SA). The readout is the amount of cAMP generated in the cells treated with the test compounds, in either agonist or antagonist mode.
Compounds were dissolved in water and diluted in assay buffer containing 1% bovine serum albumin.

[2] = biological target: T2, mu opioid receptor (Homo sapiens, UniProt P35372); test: mu opioid receptor cellular assay (MOP), agonist mode, cAMP readout (Cerep); assay type: cell-based
T2 construct: Cerep
Protocol: Compounds were weighed precisely in an amount of approximately 2 mg and assayed in standard cellular assays by the contract research organization Cerep, Inc. (Pullman, Wash.) as executed at their subsidiary, Cerep SA (Le Bois l'Eveque, France). The readout is the amount of cAMP generated in the cells treated with the test compounds, in either agonist or antagonist mode. The assays used were the mu opioid receptor cellular assay (MOP in agonist and antagonist mode), the delta2 opioid receptor cellular assay (DOP in agonist and antagonist mode) and the kappa opioid receptor cellular assay (KOP in agonist and antagonist mode). The assays used are described in Wang, J. B., et al. (1994) FEBS Lett 338: 217-222, Law, P. Y. and Loh, H. H. (1993) Mol Pharmacol 43: 684-693, and Avidor-Reiss, T., et al. (1995) FEBS Lett 361: 70-74. The stimulant for the cells in the DOR antagonist assay was 3×10E-8M DPDPE, a well-accepted DOR literature standard.

[3] = test system: db/db mice; test: db/db mice, blood glucose after s.c. dosing; assay type: in vivo, mouse; settings: db/db mice, s.c., 250 nmole/kg
Protocol: The 60 female db/db B6BKS (D) Leprdb/J (strain 000697) mice for this study were approximately 8 to 9 weeks old at arrival (Jackson Laboratory, Bar Harbor, Me.). […] One group of 8 female mice served as the vehicle control and received the vehicle, 0.2% BSA in saline, pH 7.4. One additional group of 8 female mice received the positive control article, liraglutide, at a dose level of 50 nmoles/kg. The test articles, vehicle, and positive control article were administered on Day 1, at approximately 0, 7, and 24 hours during the study via subcutaneous injection at a dose volume of 6 mL/kg.
Clinical observations were conducted at receipt, prior to randomization, and daily from Days 1 to 5. Body weights were measured and recorded at receipt, prior to randomization, and daily from Days 1 to 5. Food consumption was measured and recorded daily from Days 1 to 5. Blood samples for glucose analysis were collected pretest (Day −3) and at 0, 1, 2, 4, 8, 10, 24, 48, 72, and 96 hours following the first dose on Day 1. At study termination all animals were euthanized and the carcasses were discarded without further evaluation.

T2 sequence (P35372 whole entry): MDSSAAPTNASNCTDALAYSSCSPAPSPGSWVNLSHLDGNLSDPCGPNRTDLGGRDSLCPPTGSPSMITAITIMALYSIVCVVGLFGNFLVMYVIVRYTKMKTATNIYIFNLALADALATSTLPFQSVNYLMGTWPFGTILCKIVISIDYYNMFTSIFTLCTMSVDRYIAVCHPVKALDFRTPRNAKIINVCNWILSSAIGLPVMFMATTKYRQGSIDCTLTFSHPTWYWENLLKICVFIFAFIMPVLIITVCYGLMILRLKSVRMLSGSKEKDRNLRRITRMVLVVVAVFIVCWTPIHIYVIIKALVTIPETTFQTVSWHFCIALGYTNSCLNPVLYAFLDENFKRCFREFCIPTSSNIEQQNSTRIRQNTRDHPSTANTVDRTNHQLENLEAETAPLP

Structure (SMILES)	Characterization [1]	Emax [1] [%]	Mean Blood Glucose ([3]; 0 hr) [mg/dL]	Mean Blood Glucose ([3]; 10 hr) [mg/dL]	Mean Blood Glucose ([3]; 24 hr) [mg/dL]	Mean Blood Glucose ([3]; 48 hr) [mg/dL]	also measured
CCCCCCCCCCCCO[C@@H]1O[C@H](C(=O)NCCCC[C@H](NC(=O)[C@H](CCC(N)=O)NC(=O)[C@@H](NC(=O)[C@H](Cc2c[nH]c3ccccc23)NC(=O)[C@H](CCCNC(=N)N)NC(=O)[C@H](C)NC(=O)[C@H](CCCCNC(=N)N)NC(=O)[C@H](CCC(N)=O)NC(=O)[C@H](Cc2c[nH]cn2)NC(=O)[C@H](CCCC)NC(=O)[C@H](CC(C)C)NC(=O)[C@H](CCC(N)=O)NC(=O)[C@@H](NC(=O)[C@H](CCC(=O)O)NC(=O)C(C)(C)NC(=O)[C@@H](NC(=O)C2(N)CCCC2)C(C)C)[C@@H](C)CC)[C@@H](C)CC)C(N)=O)[C@@H](O)[C@H](O)[C@H]1O [EU-204] (H-[Ac5c]V[Aib]EIQL[Nle]HQ[hArg]ARWIQK(GlcA(β-D,1-O-dodecyl))-NH2)	agonist	135					EC50 [1]: 0.02 µM
CCCCCCCCCCCCO[C@@H]1O[C@H](C(=O)NCCCC[C@H](NC(=O)C(C)(C)NC(=O)[C@H](CCC(N)=O)NC(=O)[C@@H](NC(=O)[C@H](Cc2c[nH]c3ccccc23)NC(=O)[C@H](CCCNC(=N)N)NC(=O)[C@H](C)NC(=O)[C@H](CCCCNC(=N)N)NC(=O)[C@H](CCC(N)=O)NC(=O)[C@H](Cc2c[nH]cn2)NC(=O)[C@H](CCCC)NC(=O)[C@H](CC(C)C)NC(=O)[C@H](CCC(N)=O)NC(=O)[C@@H](NC(=O)[C@H](CCC(=O)O)NC(=O)C(C)(C)NC(=O)[C@@H](NC(=O)C2(N)CCCC2)C(C)C)[C@@H](C)CC)[C@@H](C)CC)C(N)=O)[C@@H](O)[C@H](O)[C@H]1O [EU-207] (H-[Ac5c]V[Aib]EIQL[Nle]HQ[hArg]ARWIQ[Aib]K(GlcA(β-D,1-O-dodecyl))-NH2; N-terminus assumed)	agonist	110					
CCCCCCCCCCCCO[C@@H]1O[C@H](C(=O)NCCCC[C@H](NC(=O)[C@H](CC(C)C)NC(=O)[C@H](Cc2ccccc2)NC(=O)[C@@H]2CCC(=O)NCCCC[C@H](NC(=O)[C@H](CC(=O)O)NC(=O)[C@H](CCC(N)=O)NC(=O)[C@@H](NC(=O)[C@H](Cc3c[nH]c4ccccc34)NC(=O)[C@H](CCCNC(=N)N)NC(=O)[C@H](C)NC(=O)[C@H](CCCCNC(=N)N)NC(=O)[C@H](CCC(N)=O)NC(=O)[C@H](Cc3c[nH]cn3)NC(=O)[C@H](CCCC)NC(=O)[C@H](CC(C)C)NC(=O)[C@H](CCC(N)=O)NC(=O)[C@@H](NC(=O)[C@H](CCC(=O)O)NC(=O)C(C)(C)NC(=O)[C@@H](NC(=O)C3(N)CCCC3)C(C)C)[C@@H](C)CC)[C@@H](C)CC)C(=O)N[C@@H](CCCNC(=N)N)C(=O)N[C@@H](CCCNC(=N)N)C(=O)N[C@@H](CCCNC(=N)N)C(=O)N2)C(=O)NC(C)(C)C(N)=O)[C@@H](O)[C@H](O)[C@H]1O [EU-284] (H-[Ac5c]V[Aib]EIQL[Nle]HQ[hArg]ARWIQDKRRREFLK(GlcA(β-D,1-O-dodecyl))[Aib]-NH2; lactam 18-22; N-terminus assumed)	agonist	110					
CO[C@@H]1O[C@H](C(=O)NCCCC[C@H](NC(=O)[C@H](Cc2c(C)cc(C)cc2C)NC(=O)[C@@H]2CCCN2C(=O)[C@@H](N)Cc2c(C)cc(O)cc2C)C(N)=O)[C@@H](O)[C@H](O)[C@H]1O [EU-A101, Dmt-Pro-Tmp-Lys(C1-glucuronyl)-NH2] (H-[Dmt]P[Phe(2,4,6-Me3)]K(βGlcA(1-OMe))-NH2)							Characterization (MOP) [2]: pure agonist; EC50 [2]: 0.013 µM
CO[C@@H]1O[C@H](C(=O)NCCCC[C@@H](NC(=O)[C@@H](N)Cc2c(C)cc(O)cc2C)C(=O)N[C@@H](Cc2c(C)cc(C)cc2C)C(=O)N[C@@H](Cc2ccccc2)C(N)=O)[C@@H](O)[C@H](O)[C@H]1O [EU-A107, Dmt-D-Lys(C1-glucuronyl)-Tmp-Phe-NH2] (H-[Dmt][dK](βGlcA(1-OMe))[Phe(2,4,6-Me3)]F-NH2; N-terminus assumed)							Characterization (MOP) [2]: Agonist; EC50 [2]: 0.06 µM
CCCCCCCCO[C@@H]1O[C@H](C(=O)NCCCC[C@H](NC(=O)[C@@H](NC(=O)[C@H](Cc2ccccc2)NC(=O)[C@H](CCC(=O)O)NC(=O)[C@@H]2CCCCNC(=O)CC[C@H](NC(=O)[C@H](CC(=O)O)NC(=O)[C@H](CC(C)C)NC(=O)[C@H](Cc3ccc(O)cc3)NC(=O)[C@H](CCCCN)NC(=O)[C@H](CO)NC(=O)[C@H](Cc3ccc(O)cc3)NC(=O)[C@H](CC(=O)O)NC(=O)[C@H](CO)NC(=O)[C@@H](NC(=O)[C@H](Cc3ccccc3)NC(=O)[C@@H](NC(=O)CNC(=O)[C@H](CCC(N)=O)NC(=O)C(C)(C)NC(=O)[C@@H](N)Cc3c[nH]cn3)[C@@H](C)O)[C@@H](C)O)C(=O)N[C@@H](CCC(N)=O)C(=O)N[C@@H](C)C(=O)N[C@@H](C)C(=O)N2)[C@@H](C)CC)C(=O)N[C@@H](Cc2c[nH]c3ccccc23)C(=O)N[C@@H](CC(C)C)C(=O)N[C@@H](CC(C)C)C(=O)N[C@@H](CCC(N)=O)C(=O)N[C@H](C(N)=O)[C@@H](C)O)[C@@H](O)[C@H](O)[C@H]1O [EU-A992]			405	104	112	130	
CCCCCCCCCCO[C@@H]1O[C@H](C(=O)NCCCC[C@H](NC(=O)[C@@H](NC(=O)[C@H](Cc2ccccc2)NC(=O)[C@H](CCC(=O)O)NC(=O)[C@@H]2CCCCNC(=O)CC[C@H](NC(=O)[C@H](CC(=O)O)NC(=O)[C@H](CC(C)C)NC(=O)[C@H](Cc3ccc(O)cc3)NC(=O)[C@H](CCCCN)NC(=O)[C@H](CO)NC(=O)[C@H](Cc3ccc(O)cc3)NC(=O)[C@H](CC(=O)O)NC(=O)[C@H](CO)NC(=O)[C@@H](NC(=O)[C@H](Cc3ccccc3)NC(=O)[C@@H](NC(=O)CNC(=O)[C@H](CCC(N)=O)NC(=O)C(C)(C)NC(=O)[C@@H](N)Cc3c[nH]cn3)[C@@H](C)O)[C@@H](C)O)C(=O)N[C@@H](CCC(N)=O)C(=O)N[C@@H](C)C(=O)N[C@@H](C)C(=O)N2)[C@@H](C)CC)C(=O)N[C@@H](Cc2c[nH]c3ccccc23)C(=O)N[C@@H](CC(C)C)C(=O)N[C@@H](CC(C)C)C(=O)N[C@@H](CCC(N)=O)C(=O)N[C@H](C(N)=O)[C@@H](C)O)[C@@H](O)[C@H](O)[C@H]1O [EU-A1167]			379	171	117	113	
CCCCCCCCCCCO[C@@H]1O[C@H](C(=O)NCCCC[C@H](NC(=O)[C@@H](NC(=O)[C@H](Cc2ccccc2)NC(=O)[C@H](CCC(=O)O)NC(=O)[C@@H]2CCCCNC(=O)CC[C@H](NC(=O)[C@H](CC(=O)O)NC(=O)[C@H](CC(C)C)NC(=O)[C@H](Cc3ccc(O)cc3)NC(=O)[C@H](CCCCN)NC(=O)[C@H](CO)NC(=O)[C@H](Cc3ccc(O)cc3)NC(=O)[C@H](CC(=O)O)NC(=O)[C@H](CO)NC(=O)[C@@H](NC(=O)[C@H](Cc3ccccc3)NC(=O)[C@@H](NC(=O)CNC(=O)[C@H](CCC(N)=O)NC(=O)C(C)(C)NC(=O)[C@@H](N)Cc3c[nH]cn3)[C@@H](C)O)[C@@H](C)O)C(=O)N[C@@H](CCC(N)=O)C(=O)N[C@@H](C)C(=O)N[C@@H](C)C(=O)N2)[C@@H](C)CC)C(=O)N[C@@H](Cc2c[nH]c3ccccc23)C(=O)N[C@@H](CC(C)C)C(=O)N[C@@H](CC(C)C)C(=O)N[C@@H](CCC(N)=O)C(=O)N[C@H](C(N)=O)[C@@H](C)O)[C@@H](O)[C@H](O)[C@H]1O [EU-A1168]			380	133	169	164	
